Experiments:
HOP-92 = experiment: NCI-60 screening, Non-Small Cell Lung Cancer; assay type: cell-based, human
OVCAR-4 = experiment: NCI-60 screening, Ovarian Cancer; assay type: cell-based, human
NCI-H332M = experiment: NCI-60 screening, Non-Small Cell Lung Cancer; assay type: cell-based, human
[1] = system: human endometrial stromal cells (HESC); experiment: Decidualization assay, phalloidin staining of actin cytoskeleton; assay type: cell-based
Method: Decidualization studies: The above compounds were investigated originally for the treatment of endometriosis. The compounds were tested in a decidualization assay using human endometrial stromal fibroblast (HESC) cells. In preparation for the possibility of embryonic attachment, the stromal cells in the endometrium undergo extensive waves of proliferation, remodeling, and terminal differentiation that transforms the endometrium into an endocrine gland, called decidua. This transformation is called decidualization and it is under the control by ovarian hormones.
The level of apoptosis increases from the proliferative phase through menstrual cycle and peaks at menses. […] However if the cells are subjected to conditions that induce decidualization, stromal cells will begin to differentiate instead of undergoing apoptosis.
Rationale of this assay is described above in mechanism of action studies section. Briefly, human stromal endometrial cells were plated in the presence and absence of progesterone and allow undergoing decidualization. The cells treated with test compounds of different concentrations and stained for actin cytocketal morphology using phalloidin staining and monitored under fluorescent microscope.

HS 578T = experiment: NCI-60 screening, Breast Cancer; assay type: cell-based, human
A498 = experiment: NCI-60 screening, Renal Cancer; assay type: cell-based, human
NCI-H226 = experiment: NCI-60 screening, Non-Small Cell Lung Cancer; assay type: cell-based, human
EKVX = experiment: NCI-60 screening, Non-Small Cell Lung Cancer; assay type: cell-based, human
SK-OV-3 = experiment: NCI-60 screening, Ovarian Cancer; assay type: cell-based, human
OVCAR-5 = experiment: NCI-60 screening, Ovarian Cancer; assay type: cell-based, human
BT-549 = experiment: NCI-60 screening, Breast Cancer; assay type: cell-based, human
HT29 = experiment: NCI-60 screening, Colon Cancer; assay type: cell-based, human
ACHN = experiment: NCI-60 screening, Renal Cancer; assay type: cell-based, human
MCF7 = experiment: NCI-60 screening, Breast Cancer; assay type: cell-based, human
M14 = experiment: NCI-60 screening, Melanoma; assay type: cell-based, human
NCI-H460 = experiment: NCI-60 screening, Non-Small Cell Lung Cancer; assay type: cell-based, human
UO-31 = experiment: NCI-60 screening, Renal Cancer; assay type: cell-based, human
NCI-H522 = experiment: NCI-60 screening, Non-Small Cell Lung Cancer; assay type: cell-based, human
LOX IMVI = experiment: NCI-60 screening, Melanoma; assay type: cell-based, human
T-47D = experiment: NCI-60 screening, Breast Cancer; assay type: cell-based, human
DU-145 = experiment: NCI-60 screening, Prostate Cancer; assay type: cell-based, human
MDA-MB-435 = experiment: NCI-60 screening, Melanoma; assay type: cell-based, human
HCC-2998 = experiment: NCI-60 screening, Colon Cancer; assay type: cell-based, human
UACC-62 = experiment: NCI-60 screening, Melanoma; assay type: cell-based, human
SK-MEL-5 = experiment: NCI-60 screening, Melanoma; assay type: cell-based, human
[2] = system: IGROV1 (Ovarian) Xenograft; experiment: Tumor xenograft study, IGROV1; assay type: in vivo, mice
Method: Uniform suspensions of human breast cancer MDA-MB-231 and human ovarian cancer IGROV1 cells (2×10^6) in 100 μL (0.02 carboxymethyl cellulose in phosphate buffered saline) were injected subcutaneously into the right and left flanks of 4- to 5-week-old female athymic nude mice (Charles River Laboratories). After 10 days, when the tumor […] reaches 100 mm^3, the mice were randomly allocated to 3 groups of each containing 6 animals. […] All drug was suspended in PBS followed by sonication (15 seconds with an intermittent interval of 5 seconds) for 1 minute. Tumors were allowed to reach palpability before drug intervention. Tumor size was measured every 3 days using digital Vernier Calipers and tumor volume was calculated using the ellipsoid formula [D×(d2)]/2, where D is the large diameter of the tumor and d represents the small diameter. On day 31, the mice were euthanized and tumors were harvested for protein and gene expression studies. […] FIG. 6B depicts a graph of tumor volume vs. time for the administration of EC300 at 2.5 mg/kg twice weekly in the MDA-MB-231 (TNBC) Xenograft. […] FIG. 7 depicts a graph of tumor volume vs. time for the administration of EC300 at 5 mg/kg 5 days per week in the IGROV1 (Ovarian) Xenograft. […] STAT3 phosphorylation is reduced in tumors that underwent treatment compared to control which is an indication of LIF downstream target.

HOP-62 = experiment: NCI-60 screening, Non-Small Cell Lung Cancer; assay type: cell-based, human
PC-3 = experiment: NCI-60 screening, Prostate Cancer; assay type: cell-based, human
SF-539 = experiment: NCI-60 screening, CNS Cancer; assay type: cell-based, human
SK-MEL-2 = experiment: NCI-60 screening, Melanoma; assay type: cell-based, human
CAKI-1 = experiment: NCI-60 screening, Renal Cancer; assay type: cell-based, human
HL-60(TB) = experiment: NCI-60 screening, Leukemia; assay type: cell-based, human
CCRF-CEM = experiment: NCI-60 screening, Leukemia; assay type: cell-based, human
A549/ATCC = experiment: NCI-60 screening, Non-Small Cell Lung Cancer; assay type: cell-based, human
RPMI-8226 = experiment: NCI-60 screening, Leukemia; assay type: cell-based, human

## C#CC(F)(F)[C@]1(O)CCC2C3CCC4=CC(=O)CCC4=C3C(c3ccc(C4CC4)cc3)C[C@@]21C (stereo partly drawn) [EC330, 17α-(1,1-difluoro-2-propyn-1-yl)-17β-hydroxy-11β-[4-p-(cyclopropyl)phenyl]estra-4,9-dien-3-one]
HOP-92
  TGI (log10TGI): <−8.00
OVCAR-4
  TGI (log10TGI): >−4.00
NCI-H332M
  TGI (log10TGI): >−4.00
[1]
  actin cytoskeletal disruption (phalloidin staining): cytoskeletal disruption
HS 578T
  TGI (log10TGI): −4.99
A498
  TGI (log10TGI): −6.01
NCI-H226
  TGI (log10TGI): −5.04
EKVX
  TGI (log10TGI): <−8.00
SK-OV-3
  TGI (log10TGI): −6.55
OVCAR-5
  TGI (log10TGI): −5.25
BT-549
  TGI (log10TGI): −5.30
HT29
  TGI (log10TGI): −6.72
ACHN
  TGI (log10TGI): −5.09
MCF7
  TGI (log10TGI): −4.96
M14
  TGI (log10TGI): −4.45
NCI-H460
  TGI (log10TGI): −4.80
UO-31
  TGI (log10TGI): <−8.00
NCI-H522
  TGI (log10TGI): <−8.00
LOX IMVI
  TGI (log10TGI): <−8.00
T-47D
  TGI (log10TGI): −5.00
DU-145
  TGI (log10TGI): −4.75
MDA-MB-435
  TGI (log10TGI): −5.03
HCC-2998
  TGI (log10TGI): −4.37
UACC-62
  TGI (log10TGI): −5.27
SK-MEL-5
  TGI (log10TGI): −4.79
[2]; 5 mg/kg (5 days per week), 4 weeks, IGROV1 xenograft
  antitumor activity: potent antitumor activity
[2]; IGR-OV1 ovarian cancer xenograft tumors
  apoptosis in xenograft tumors: induced apoptosis dose dependently
[2]; ovarian cancer model
  tumor growth: significantly reduced
[2]; treated compared to control
  STAT3 phosphorylation in tumors: reduced
HOP-62
  TGI (log10TGI): −6.79
PC-3
  TGI (log10TGI): −5.53
SF-539
  TGI (log10TGI): −7.77
SK-MEL-2
  TGI (log10TGI): −5.19
CAKI-1
  TGI (log10TGI): −6.41
HL-60(TB)
  TGI (log10TGI): <−8.00
CCRF-CEM
  TGI (log10TGI): <−8.00
A549/ATCC
  TGI (log10TGI): −4.61
RPMI-8226
  TGI (log10TGI): −6.24

— patent US20200087340A1, “LIF/LIFR ANTAGONIST IN ONCOLOGY AND NONMALIGNANT DISEASES” (Evestra, Inc., priority 2018, published 2020)
